Measurements taken from patent publication US9211310B2, “Use of a Chinese medicine composition in preparing medicaments for treating secondary prevention of myocardial infarction” (TASLY PHARMACEUTICAL GROUP CO., LTD, priority 2010, dated 2015).

Tested on: patients after acute myocardial infarction
Assay: Angina pectoris score, total and single (frequency/attack times, duration, pain degree, dose of nitroglycerin), same clinical trial
Type: in vivo, human
Text: In order to better understand the present invention, a multi-center, randomized, double-blind, double-dummy and positive drug controlled trial had been conducted. 3508 patients who were in accordance with the diagnostic standards of AMI for 28 days to 2 years and differentiated as Qi deficiency and blood stagnation syndrome by TCM were studied. 0.5 g Chinese medicine composition prepared by the method of EXAMPLE 1 (Coded as QSYQ) was administrated half an hour after meal, 3 times per day. Aspirine was used as a positive drug. The patients were treated for 1 year and observed for 6 months.
They included the overall survival time, angina pectoris score, TCM symptom score and life quality score, where angina pectoris score, TCM symptom score and life quality score were evaluated at randomization, in 1st, 3rd, 6th, 9th, 12th month after treatment and 18th month after follow-up.
(§1) Total angina pectoris score was described on every observation period and the change of observation in comparison with baseline. T-test or Wilcoxon rank sum test were used for inter-group comparison. Grade of total score was evaluated on every observation and Wilcoxon rank sum test was used for inter-group comparison. T-test and Pairing signed rank sum test were used for analyzing the change of total score on every observation between groups in comparison with the baseline.
(§2) Single angina pectoris score was depicted on every observation time-point and the change of observation in comparison with baseline. Wilcoxon rank sum test was used for inter-group comparison. Pairing signed rank sum test was used for analyzing the change of total score on every observation between groups in comparison with the baseline.
as §1, with “comparison with the baseline. T-test” for “comparison with baseline. T-test”
as §2, with “described” for “depicted”

With `CC(=O)Oc1ccccc1C(=O)O` [Control group, aspirine] as the molecule, how does the “change of attack times score, patients (%)” value (“change … (%)” for short) (1 month after treatment-baseline, change 0, FAS) read?
Its value is “(74.81%)”.

And the “change … (%)” value (1 month after treatment-baseline, change 0, PP)?
The value was “(74.53%)”.

What about the “change … (%)” value (1 month after treatment-baseline, change 1, FAS) of the same molecule?
Its value is “(2.07%)”.

What about the “change … (%)” value (1 month after treatment-baseline, change 1, PP) of the same molecule?
Its value is “(1.95%)”.

And the “change … (%)” value (1 month after treatment-baseline, change 2, FAS)?
Its value is “(2.35%)”.

And the “change … (%)” value (1 month after treatment-baseline, change 2, PP)?
The value was “(2.08%)”.

And the “change … (%)” value (1 month after treatment-baseline, change 3, FAS)?
The value was “(0.11%)”.

What about the “change … (%)” value (1 month after treatment-baseline, change 3, PP) of the same molecule?
Its value is “(0.13%)”.

And the “change … (%)” value (1 month after treatment-baseline, change 4, FAS)?
Its value is “(0.06%)”.

What about the “change … (%)” value (1 month after treatment-baseline, change 4, PP) of the same molecule?
Its value is “(0.07%)”.

And the “change … (%)” value (1 month after treatment-baseline, change −1, FAS)?
Its value is “(7.11%)”.

And the “change … (%)” value (1 month after treatment-baseline, change −1, PP)?
The value was “(7.06%)”.

And the “change … (%)” value (1 month after treatment-baseline, change −2, FAS)?
The value was “(11.99%)”.

What about the “change … (%)” value (1 month after treatment-baseline, change −2, PP) of the same molecule?
Its value is “(12.63%)”.

What about the “change … (%)” value (1 month after treatment-baseline, change −3, FAS) of the same molecule?
The value was “(0.34%)”.

What about the “change … (%)” value (1 month after treatment-baseline, change −3, PP) of the same molecule?
The value was “(0.40%)”.

And the “change … (%)” value (1 month after treatment-baseline, change −4, FAS)?
Its value is “(1.03%)”.

And the “change … (%)” value (1 month after treatment-baseline, change −4, PP)?
The value was “(1.08%)”.

And the “change … (%)” value (1 month after treatment-baseline, change −5, FAS)?
The value was “(0.00%)”.

What about the “change … (%)” value (1 month after treatment-baseline, change −5, PP) of the same molecule?
Its value is “(0.00%)”.

What about the “change … (%)” value (1 month after treatment-baseline, change −6, FAS) of the same molecule?
Its value is “(0.11%)”.

And the “change … (%)” value (1 month after treatment-baseline, change −6, PP)?
The value was “(0.07%)”.

What about the “attack times score, patients (%)” value (3 months after treatment, score 0, FAS) of the same molecule?
Its value is “(40.02%)”.

And the “attack times score, patients (%)” value (3 months after treatment, score 0, PP)?
The value was “(40.46%)”.

What about the “attack times score, patients (%)” value (3 months after treatment, score 1, FAS) of the same molecule?
Its value is “(14.11%)”.

What about the “attack times score, patients (%)” value (3 months after treatment, score 1, PP) of the same molecule?
The value was “(13.92%)”.

What about the “attack times score, patients (%)” value (3 months after treatment, score 2, FAS) of the same molecule?
The value was “(41.46%)”.

And the “attack times score, patients (%)” value (3 months after treatment, score 2, PP)?
The value was “(41.89%)”.

What about the “attack times score, patients (%)” value (3 months after treatment, score 4, FAS) of the same molecule?
The value was “(4.30%)”.

And the “attack times score, patients (%)” value (3 months after treatment, score 4, PP)?
The value was “(3.60%)”.

What about the “attack times score, patients (%)” value (3 months after treatment, score 6, FAS) of the same molecule?
The value was “(0.11%)”.

What about the “attack times score, patients (%)” value (3 months after treatment, score 6, PP) of the same molecule?
The value was “(0.14%)”.

And the “change … (%)” value (3 months after treatment-baseline, change 0, FAS)?
The value was “(65.52%)”.

What about the “change … (%)” value (3 months after treatment-baseline, change 0, PP) of the same molecule?
Its value is “(65.15%)”.

And the “change … (%)” value (3 months after treatment-baseline, change 1, FAS)?
The value was “(3.10%)”.

What about the “change … (%)” value (3 months after treatment-baseline, change 1, PP) of the same molecule?
The value was “(2.79%)”.

And the “change … (%)” value (3 months after treatment-baseline, change 2, FAS)?
Its value is “(2.24%)”.

What about the “change … (%)” value (3 months after treatment-baseline, change 2, PP) of the same molecule?
The value was “(1.83%)”.

And the “change … (%)” value (3 months after treatment-baseline, change 3, FAS)?
Its value is “(0.00%)”.

What about the “change … (%)” value (3 months after treatment-baseline, change 4, FAS) of the same molecule?
Its value is “(0.17%)”.

And the “change … (%)” value (3 months after treatment-baseline, change 4, PP)?
Its value is “(0.14%)”.

And the “change … (%)” value (3 months after treatment-baseline, change −1, FAS)?
Its value is “(10.96%)”.

And the “change … (%)” value (3 months after treatment-baseline, change −1, PP)?
Its value is “(11.21%)”.

And the “change … (%)” value (3 months after treatment-baseline, change −2, FAS)?
The value was “(15.78%)”.

And the “change … (%)” value (3 months after treatment-baseline, change −2, PP)?
The value was “(16.51%)”.

And the “change … (%)” value (3 months after treatment-baseline, change −3, FAS)?
Its value is “(0.46%)”.

And the “change … (%)” value (3 months after treatment-baseline, change −3, PP)?
The value was “(0.54%)”.

What about the “change … (%)” value (3 months after treatment-baseline, change −4, FAS) of the same molecule?
The value was “(1.43%)”.

What about the “change … (%)” value (3 months after treatment-baseline, change −4, PP) of the same molecule?
Its value is “(1.56%)”.

And the “change … (%)” value (3 months after treatment-baseline, change −5, FAS)?
The value was “(0.11%)”.

What about the “change … (%)” value (3 months after treatment-baseline, change −5, PP) of the same molecule?
The value was “(0.14%)”.

What about the “change … (%)” value (3 months after treatment-baseline, change −6, FAS) of the same molecule?
Its value is “(0.23%)”.

And the “change … (%)” value (3 months after treatment-baseline, change −6, PP)?
Its value is “(0.14%)”.

And the “attack times score, patients (%)” value (6 months after treatment, score 0, FAS)?
The value was “(44.55%)”.

And the “attack times score, patients (%)” value (6 months after treatment, score 0, PP)?
The value was “(45.98%)”.

And the “attack times score, patients (%)” value (6 months after treatment, score 1, FAS)?
Its value is “(15.54%)”.

And the “attack times score, patients (%)” value (6 months after treatment, score 1, PP)?
The value was “(15.92%)”.

And the “attack times score, patients (%)” value (6 months after treatment, score 2, FAS)?
Its value is “(36.81%)”.

What about the “attack times score, patients (%)” value (6 months after treatment, score 2, PP) of the same molecule?
Its value is “(36.17%)”.

What about the “attack times score, patients (%)” value (6 months after treatment, score 4, FAS) of the same molecule?
Its value is “(3.04%)”.

And the “attack times score, patients (%)” value (6 months after treatment, score 4, PP)?
The value was “(1.85%)”.
